The text below walks through data of patent publication US9938316B2, “Selective inhibitors of α2 isoform of Na,K-ATPase and use thereof for reduction of intra-ocular pressure and as cardiotonic agents” (priority 2013, dated 2018).

The test system of data set [1] is Na,K-ATPase isoforms (α1β1, α2β1, α3β1). The conditions noted are these: membranes; cited from earlier work.
In data set [2] the test system is intra-ocular pressure (IOP) of rabbits. The data set is described as follows: 4-aminopyridine (4AP)-induced ocular hypertension in rabbits. Format: in vivo, New Zealand white rabbits. The note with it: for Effect on 4AP-induced rise in IOP: 1 drop topically 30 minutes prior to 4AP. Here is the method:
Intra-ocular pressure in rabbits was measured using of a “Reichert Model 30™ Pneumatonometer” after anesthetizing the cornea with local anesthetic.
Since the IOP reflects a balance of the inflow and outflow of aqueous humour, reduction of the increased 4AP-induced inflow of aqueous humour by cardiac glycosides should prevent the increase in IOP. Thus, the standard experimental design to test effects of cardiac glycosides involved topical application of the compounds (1 drop in each eye) 30 minutes prior to application of 4AP and measurement of IOP every 30 minutes over five hours. […] Each experiment was done three times, but the figures depict a representative experiment using a different rabbit for each concentration of the cardiac glycoside.
DGlyN or DMe (0.1 or 1 mM) were applied one hour after the first application of 4AP, which was added every two hours.
New Zealand white rabbits (3-3.5 kg) about 1 year old, of either sex, were housed individually in separate cages in animal room conditions on a reversed, 12-hour dark/light cycle. For the experiments the animals were transferred to rabbit restrainers in a quiet and calm atmosphere (FIG. 1). […] Animal care and treatment were subject to the approval of the institutional committee for animal experiments, Weizmann Institute IACUC permission (no 04270911-2).
IOP (mm Hg) of rabbits was measured using a calibrated Pneumatonometer (Model 30, Reichert technologies, FIG. 1). A local anesthetic Oxybuprocaine HCl (0.4%, 25 μl) was applied to each cornea about a minute before IOP measurements. Two baseline IOP readings were taken before topical administration of the CG (or PBS as control) and after half an hour (Zero time). […] At zero time one drop of 4AP (40 mg/ml, 30 μl) or IB-MECA (1 μM, 30 μl) was administered to both eyes of each rabbit IOP measurements were made at different times as indicated in each experiment. In the experiments for which the IOP was elevated for several hours, 4AP was added every […] or IB-MECA every 2 hours. […] In all cases the figures depict the average effect on IOP (i.e for four or six eyes) compared to control ±SEM. […] Significance of differences from the control was calculated by the unpaired Students t-test (p values), p values <0.05 were considered significant. Corneal thickness (μm) was measured using an ultrasonic pachymeter (Sonogage pachometer, Cleveland, USA), before and during the experiment with CG and 4AP treatments. The values represent averages of three independent measurements for each eye.

Data set [3] relates to purified α2β1FXYD1 complexes of Na,K-ATPase. The data set can be described thus: Dissociation of cardiac glycosides from the α2β1 isoform complex. Here is the method:
Since the principal isoform in NPE cells is α2 and dissociation from the pump is expected to affect the duration of the effects on IOP, the dissociation rates of different cardiac glycosides from the purified α2β1 isoform were compared.
Purified α2β1FXYD1 complexes (0.3-0.5 mg/ml) were incubated for 30 minutes at 37° C. in a medium containing ATP, 1 mM; NaCl 100 mM; MgCl2, 4 mM Histidine.HCl 25 mM pH 7.4 without (Control) or with 1 μM of different cardiac glycosides. The enzyme solutions were then diluted 100-fold into a medium containing 100 mM NaCl, 5 mM KCl, 1 mM EDTA (Tris), 0.005 mg/ml C12E8, 0.01 mg/ml SOPS, and 0.001 mg/ml cholesterol and incubated at 37° C. for different lengths of time. Aliquots were removed at different times and Na,K-ATPase activity was measured in triplicate over 0.5 minutes (digoxigenin) or 2 minutes (other cardiac glycosides) in the standard activity medium containing 200 μM ATP. The activity of test samples was divided by the activity of the control samples and the time-course for reversal of inhibition was analyzed by fitting the data to the function vt=v∞e^−kt+c. Normalized curves for comparison of different experiments (e.g. as in FIG. 9) were obtained by subtracting the constant value c from each value of the activity and re-fitting the ratio vt/v∞=1−e^−kt.

Data set [4] concerns cornea of rabbits. The data set is described as follows: Pachymetry: corneal thickness and local toxicity after topical cardiac glycosides. The data set is classed as in vivo, New Zealand white rabbits. The conditions noted are these: rabbit, in vivo. Here is the method: Thus, in this study, no change in corneal thickness was detected (Table 3), indicative of lack of local toxic effects. […] Similar results were obtained with CG's applied after IB-MECA.
IOP (mm Hg) of rabbits was measured using a calibrated Pneumatonometer (Model 30, Reichert technologies, FIG. 1). A local anesthetic Oxybuprocaine HCl (0.4%, 25 μl) was applied to each cornea about a minute before IOP measurements. Two baseline IOP readings were taken before topical administration of the CG (or PBS as control) and after half an hour (Zero time). […] At zero time one drop of 4AP (40 mg/ml, 30 μl) or IB-MECA (1 μM, 30 μl) was administered to both eyes of each rabbit IOP measurements were made at different times as indicated in each experiment. In the experiments for which the IOP was elevated for several hours, 4AP was added every 1.5 hours or IB-MECA every 2 hours. […] Each experiment was repeated two or three times with similar results. In all cases the figures depict the average effect on IOP (i.e for four or six eyes) compared to control ±SEM. Where error bars are not seen in the figures, the errors are smaller than the symbols used. Significance of differences from the control was calculated by the unpaired Students t-test (p values), p values <0.05 were considered significant. Corneal thickness (μm) was measured using an ultrasonic pachymeter (Sonogage pachometer, Cleveland, USA), before and during the experiment with CG and 4AP treatments. The values represent averages of three independent measurements for each eye.

Turning to `C[C@]12CC[C@H](O)C[C@H]1CC[C@@H]1[C@@H]2CC[C@]2(C)[C@@H](C3=CC(=O)OC3)CC[C@]12O` [digitoxgenin], the “Isoform selectivity of KD (in words)” value in data set [1] is listed as “no isoform selectivity”.
With `C[C@H]1O[C@@H](O[C@H]2[C@@H](O)C[C@H](O[C@H]3[C@@H](O)C[C@H](O[C@H]4CC[C@@]5(C)[C@H](CC[C@@H]6[C@@H]5C[C@@H](O)[C@]5(C)[C@@H](C7=CC(=O)OC7)CC[C@]65O)C4)O[C@@H]3C)O[C@@H]2C)C[C@H](O)[C@@H]1O` [Digoxin, digoxin, reference compound], the “Effect on 4AP-induced rise in IOP” value is given as “poorly effective” in data set [2] (0.25 mM) and “able to prevent the 4AP-induced rise in IOP” in data set [2] (1 mM). Further, the “Time IOP is maintained at the low level” value in data set [2] (1 mM, single drop, 4AP every two hours) stood at 1 h. In addition, in data set [3], the “t1/2 ± SEM (dissociation)” value turned out to be 47.5 ± 5.05 min. Further, the “k ± SEM (rate of dissociation)” value in data set [3] (α2β1 isoform complex, 37° C.) is 0.015 ± 0.001, 4 min^−1. For the same compound, in data set [4], the “Redness or local irritation in conjunctiva or cornea” value is on record as “neither redness nor local irritation were observed”.
